Assay results from patent publication US9999622B2, “Pyrazolothiazole compound and medicine comprising same” (NIPPON SHINYAKU CO., LTD., priority 2014, dated 2018).

What was measured:
Format in all cases: biochemical
JAK2 = biological target: T1, JAK2 (Homo sapiens, UniProt O60674); assay: JAK tyrosine kinase inhibitory activity in the presence of 1 mM ATP (ELISA), JAK2
T1 construct: purchased Carna Biosciences, Inc
Procedure, shortened: (§1)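 ELISA read-out: HRP-labelled anti-phosphotyrosine antibody with TMB, absorbance 450 nm, after 1 h kinase reaction at 30 °C in presence of 1 mM ATP. Kinase diluted to 7.5 nM (JAK1) or 0.75 nM (JAK2/JAK3) in Tris-HCl pH 7.5 buffer with DTT; compounds tested in duplicate.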

JAK3 = biological target: T2, JAK3 (Homo sapiens, UniProt P52333); assay: JAK tyrosine kinase inhibitory activity in the presence of 1 mM ATP (ELISA), JAK3
T2 construct: purchased Carna Biosciences, Inc
T2 sequence (P52333 1-1124): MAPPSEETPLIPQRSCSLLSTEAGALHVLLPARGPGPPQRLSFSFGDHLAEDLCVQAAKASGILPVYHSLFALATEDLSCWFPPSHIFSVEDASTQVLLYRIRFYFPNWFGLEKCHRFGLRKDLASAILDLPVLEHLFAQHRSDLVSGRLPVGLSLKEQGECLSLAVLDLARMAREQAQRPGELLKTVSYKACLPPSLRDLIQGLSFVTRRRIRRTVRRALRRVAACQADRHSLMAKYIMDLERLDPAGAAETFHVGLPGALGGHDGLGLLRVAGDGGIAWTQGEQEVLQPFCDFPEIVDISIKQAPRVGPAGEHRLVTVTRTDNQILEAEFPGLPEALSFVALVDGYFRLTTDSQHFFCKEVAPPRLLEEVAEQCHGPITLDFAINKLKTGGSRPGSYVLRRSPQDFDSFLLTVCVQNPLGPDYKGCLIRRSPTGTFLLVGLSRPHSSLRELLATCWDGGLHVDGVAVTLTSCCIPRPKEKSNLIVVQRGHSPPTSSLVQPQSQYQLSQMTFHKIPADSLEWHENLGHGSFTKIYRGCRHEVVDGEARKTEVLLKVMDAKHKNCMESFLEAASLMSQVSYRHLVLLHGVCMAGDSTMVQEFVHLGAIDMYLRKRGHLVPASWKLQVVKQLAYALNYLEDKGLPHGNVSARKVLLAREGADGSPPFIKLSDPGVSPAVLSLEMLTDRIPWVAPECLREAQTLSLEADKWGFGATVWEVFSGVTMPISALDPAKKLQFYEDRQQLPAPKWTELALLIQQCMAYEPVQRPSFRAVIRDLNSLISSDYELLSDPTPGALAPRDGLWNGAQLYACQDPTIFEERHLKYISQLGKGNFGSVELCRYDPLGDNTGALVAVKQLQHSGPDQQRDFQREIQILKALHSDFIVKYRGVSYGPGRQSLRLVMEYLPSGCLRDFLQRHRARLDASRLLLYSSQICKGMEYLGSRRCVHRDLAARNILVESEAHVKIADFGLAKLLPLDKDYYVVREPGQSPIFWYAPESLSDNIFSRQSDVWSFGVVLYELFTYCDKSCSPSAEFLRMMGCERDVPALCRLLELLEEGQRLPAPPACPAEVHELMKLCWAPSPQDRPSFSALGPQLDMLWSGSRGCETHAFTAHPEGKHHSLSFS
Procedure, shortened: as §1

JAK1 = biological target: T3, JAK1 (Homo sapiens, UniProt P23458); assay: JAK tyrosine kinase inhibitory activity in the presence of 1 mM ATP (ELISA), JAK1
T3 construct: purchased Carna Biosciences, Inc
Procedure, shortened: as §1

T3 sequence (P23458 whole entry): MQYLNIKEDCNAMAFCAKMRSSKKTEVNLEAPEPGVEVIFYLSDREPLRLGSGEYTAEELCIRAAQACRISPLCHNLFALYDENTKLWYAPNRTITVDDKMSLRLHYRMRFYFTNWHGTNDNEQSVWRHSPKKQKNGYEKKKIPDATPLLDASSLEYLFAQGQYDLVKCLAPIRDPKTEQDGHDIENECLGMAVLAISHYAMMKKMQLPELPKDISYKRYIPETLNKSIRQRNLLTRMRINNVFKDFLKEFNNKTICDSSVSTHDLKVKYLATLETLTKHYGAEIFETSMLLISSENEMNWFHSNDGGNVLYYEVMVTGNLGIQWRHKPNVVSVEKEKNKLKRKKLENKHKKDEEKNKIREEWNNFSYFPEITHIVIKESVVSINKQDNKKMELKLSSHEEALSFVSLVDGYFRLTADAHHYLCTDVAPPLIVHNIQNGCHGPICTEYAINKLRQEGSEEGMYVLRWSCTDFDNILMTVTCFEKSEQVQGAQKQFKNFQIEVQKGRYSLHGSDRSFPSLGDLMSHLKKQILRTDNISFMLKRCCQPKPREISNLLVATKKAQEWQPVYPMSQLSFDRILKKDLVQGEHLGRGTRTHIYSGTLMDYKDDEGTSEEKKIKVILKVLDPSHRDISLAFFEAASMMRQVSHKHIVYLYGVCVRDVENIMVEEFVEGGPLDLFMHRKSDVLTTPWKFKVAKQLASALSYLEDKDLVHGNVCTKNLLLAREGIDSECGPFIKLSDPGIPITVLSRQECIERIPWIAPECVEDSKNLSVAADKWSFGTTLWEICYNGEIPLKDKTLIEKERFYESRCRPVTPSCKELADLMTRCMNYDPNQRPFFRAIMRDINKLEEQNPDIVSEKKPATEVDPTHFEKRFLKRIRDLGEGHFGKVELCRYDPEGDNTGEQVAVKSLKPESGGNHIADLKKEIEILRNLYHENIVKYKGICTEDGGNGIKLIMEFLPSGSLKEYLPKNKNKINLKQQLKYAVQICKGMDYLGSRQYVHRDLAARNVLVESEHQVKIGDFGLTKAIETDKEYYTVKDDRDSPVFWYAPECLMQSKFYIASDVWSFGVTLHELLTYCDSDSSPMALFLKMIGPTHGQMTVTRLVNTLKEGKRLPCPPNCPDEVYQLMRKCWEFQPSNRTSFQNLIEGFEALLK
T1 sequence (O60674 whole entry): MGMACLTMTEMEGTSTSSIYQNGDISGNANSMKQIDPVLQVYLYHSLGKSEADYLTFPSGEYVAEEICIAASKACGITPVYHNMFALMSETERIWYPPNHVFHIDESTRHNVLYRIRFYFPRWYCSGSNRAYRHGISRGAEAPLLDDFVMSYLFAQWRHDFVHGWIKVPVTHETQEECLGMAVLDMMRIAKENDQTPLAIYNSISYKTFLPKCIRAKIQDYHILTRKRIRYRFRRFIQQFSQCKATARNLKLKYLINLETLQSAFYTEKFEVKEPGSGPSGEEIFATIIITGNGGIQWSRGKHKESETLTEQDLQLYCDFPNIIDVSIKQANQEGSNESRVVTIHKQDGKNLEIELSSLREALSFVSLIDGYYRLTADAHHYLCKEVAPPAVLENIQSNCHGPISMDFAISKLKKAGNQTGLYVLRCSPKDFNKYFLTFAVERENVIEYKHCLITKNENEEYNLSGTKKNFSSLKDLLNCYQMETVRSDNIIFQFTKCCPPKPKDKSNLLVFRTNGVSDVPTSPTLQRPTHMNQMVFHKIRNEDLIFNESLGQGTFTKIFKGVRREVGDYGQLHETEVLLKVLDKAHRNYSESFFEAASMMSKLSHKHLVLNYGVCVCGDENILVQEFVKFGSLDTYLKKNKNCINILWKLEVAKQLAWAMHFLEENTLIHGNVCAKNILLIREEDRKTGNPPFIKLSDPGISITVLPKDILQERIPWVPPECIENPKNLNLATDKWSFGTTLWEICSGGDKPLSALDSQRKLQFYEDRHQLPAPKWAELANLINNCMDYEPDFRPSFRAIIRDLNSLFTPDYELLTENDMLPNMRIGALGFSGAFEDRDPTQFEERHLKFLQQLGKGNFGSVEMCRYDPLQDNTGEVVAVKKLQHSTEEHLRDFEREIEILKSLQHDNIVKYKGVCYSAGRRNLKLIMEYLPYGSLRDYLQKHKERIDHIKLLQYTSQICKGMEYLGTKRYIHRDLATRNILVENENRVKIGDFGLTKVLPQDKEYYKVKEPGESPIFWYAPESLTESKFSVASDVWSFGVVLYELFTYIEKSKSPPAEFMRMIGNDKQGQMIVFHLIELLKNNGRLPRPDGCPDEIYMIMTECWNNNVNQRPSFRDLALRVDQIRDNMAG

Row | IC50 (JAK2) | IC50 (JAK3) | IC50 (JAK1) | SMILES
1 | 7200 nM | 9000 nM | 210 nM | CC[C@H](C)Nc1nc(-c2cnn3ccsc23)nc(C(=O)N2CCC(NC(=O)OC)CC2)c1OC [Example 153, Methyl [1-({6-[(2S)-butan-2-ylamino]-5-methoxy-2-(pyrazolo[5,1-b][1,3]thiazol-7-yl)pyrimidin 4 yl}carbonyl)piperidin-4-yl]carbamate]
2 | 1400 nM | 3200 nM | 62 nM | C[C@H](Nc1cc(C(=O)N2CCC(NC(=O)C3CC3)CC2)nc(-c2cnn3ccsc23)n1)C(C)(C)C [Example 3, N-(1-{[6-{[(2S)-3,3-Dimethylbutan-2-yl]amino}-2-(pyrazolo[5,1-b][1,3]thiazol-7-yl)pyrimidin-4-yl]carbonyl}piperidin-4-yl)cyclopropanecarboxamide]
3 | > 10000 nM | 9500 nM | 510 nM | COC(=O)NC1CCN(C(=O)c2cc(N[C@H]3CC[C@H](O)CC3)nc(-c3cnn4ccsc34)n2)CC1 [Example 178, Methyl (1-6-[(trans-4-hydroxycyclohexyl)amino]-2-(pyrazolo[5,1-b][1,3]thiazol-7-yl)pyrimidine-4-carbonylpiperidin-4-yl)carbamate]
4 | > 10000 nM | 5600 nM | 300 nM | COC(=O)NC1CCN(C(=O)c2cc(NCC(C)(C)CC3CC3)nc(-c3cnn4ccsc34)n2)CC1 [Example 174, Methyl (1-6-[(3-cyclopropyl-2,2-dimethylpropyl)amino]-2-(pyrazolo[5,1-b][1,3]thiazol-7-yl)pyrimidine-4-carbonylpiperidin-4-yl)carbamate]
5 | 1200 nM | 1800 nM | 620 nM | COCCOC(=O)NC1CCN(C(=O)c2cc(N[C@H](C)C(C)(C)C)nc(-c3cnn4ccsc34)n2)CC1 [Example 90, 2-Methoxyethyl (1-{[6-{[(2R)-3,3-dimethylbutan-2-yl]amino}-2-(pyrazolo[5,1-b][1,3]thiazol-7-yl)pyrimidin-4-yl]carbonyl}piperidin-4-yl)carbamate]
6 | > 10000 nM | 6600 nM | 480 nM | COC(=O)NC1CCN(C(=O)c2cc(NC3(C#N)CC3)nc(-c3cnn4ccsc34)n2)CC1 [Example 144, Methyl [1-({6-[(1-cyanocyclopropyl)amino]-2-(pyrazolo[5,1-b][1,3]thiazol-7-yl)pyrimidin-4-yl}carbonyl)piperidin-4-yl]carbamate]
7 | 2400 nM | > 10000 nM | 270 nM | C[C@@H](C1CC1)N(C)c1cc(C(=O)N2CCC(Nc3ncccn3)CC2)nc(-c2cnn3ccsc23)n1 [Example 35, [6-{[(1S)-1-Cyclopropylethyl](methyl)amino}-2-(pyrazolo[5,1-b][1,3]thiazol-7-yl)pyrimidin-4-yl][4-(pyrimidin-2-ylamino)piperidin-1-yl]methanone]
8 | > 10000 nM | > 10000 nM | 2800 nM | COC(=O)NC1CCN(C(=O)c2cc(NC3CCN(C(=O)CC#N)CC3)nc(-c3cnn4ccsc34)n2)CC1 [Example 199, Methyl (1-{[6-{[1-(cyanoacetyl)piperidin-4-yl]amino}-2-(pyrazolo[5,1-b][1,3]thiazol-7-yl)pyrimidin-4-yl]carbonyl}piperidin-4-yl)carbamate]
9 | 2500 nM | 4800 nM | 21 nM | O=C(NC1CCN(C(=O)c2cc(NCC3(COC(F)F)CCOCC3)nc(-c3cnn4ccsc34)n2)CC1)C1CC1 [Example 11, N-[1-({6-[({4-[(Difluoromethoxy)methyl]tetrahydro-2H-pyran-4-yl}methyl)amino]-2-(pyrazolo[5,1-b][1,3]thiazol-7-yl)pyrimidin-4-yl}carbonyl)piperidin-4-yl]cyclopropanecarboxamide]
10 | 1400 nM | 3500 nM | 490 nM | CC(C)[C@@H](C)Nc1cc(C(=O)N2CCC(NC(=O)C(F)F)CC2)nc(-c2cnn3ccsc23)n1 [Example 136, 2,2-Difluoro-N-(1-{[6-{[(2R)-3-methylbutan-2-yl]amino}-2-(pyrazolo[5,1-b][1,3]thiazol-7-yl)pyrimidin-4-yl]carbonyl}piperidin-4-yl)acetamide]
11 | 5100 nM | > 10000 nM | 310 nM | CCC1CCCCN1c1cc(C(=O)N2CCC(NC(=O)C3CC3)CC2)nc(-c2cnn3ccsc23)n1 (stereo not drawn) [Example 157, N-(1-{[6-(2-ethylpiperidin-1-yl)-2-(pyrazolo[5,1-b][1,3]thiazol-7-yl)pyrimidin-4-yl]carbonyl}piperidin-4-yl)cyclopropanecarboxamide]
12 | 2900 nM | 2100 nM | 43 nM | CC(C)OC(=O)NC1CCN(C(=O)c2cc(NC3(C)COC3)nc(-c3cnn4ccsc34)n2)CC1 [Example 139, Propan-2-yl [1-({6-[(3-methyloxetan-3-yl)amino]-2-(pyrazolo[5,1-b][1,3]thiazol-7-yl)pyrimidin-4-yl}carbonyl)piperidin-4-yl]carbamate]
13 | 1200 nM | > 10000 nM | 260 nM | COCC(C)(C)Nc1cc(C(=O)N2CCC(NC(=O)C3CC3)CC2)nc(-c2cnn3ccsc23)n1 [Example 38, N-[1-({6-[(1-Methoxy-2-methylpropan-2-yl)amino]-2-(pyrazolo[5,1-b][1,3]thiazol-7-yl)pyrimidin-4-yl}carbonyl)piperidin-4-yl]cyclopropanecarboxamide]
14 | 1600 nM | 1400 nM | 270 nM | COC(=O)NC1CCN(C(=O)c2nc(-c3cnn4ccsc34)nc(N[C@H](C)C(C)(C)C)c2OC)CC1 [Example 146, Methyl (1-{[6-{[(2R)-3,3-dimethylbutan-2-yl]amino}-5-methoxy-2-(pyrazolo[5,1-b][1,3]thiazol-7-yl)pyrimidin-4-yl]carbonyl}piperidin-4-yl)carbamate]
15 | 770 nM | 340 nM | 280 nM | COC(=O)NC1CCN(C(=O)c2cc(NC(C3CC3)C3CC3)nc(-c3cnn4ccsc34)n2)CC1 [Example 140, Methyl [1-({6-[(dicyclopropylmethyl)amino]-2-(pyrazolo[5,1-b][1,3]thiazol-7-yl)pyrimidin-4-yl}carbonyl)piperidin-4-yl]carbamate]
16 | 2000 nM | 4300 nM | 650 nM | C[C@@H](Nc1cc(C(=O)N2CCC(NC(=O)N(C)C)CC2)nc(-c2cnn3ccsc23)n1)C1CC1 [Example 138, 3-(1-{[6-{[(1R)-1-Cyclopropylethyl]amino}-2-(pyrazolo[5,1-b][1,3]thiazol-7-yl)pyrimidin-4-yl]carbonyl}piperidin-4-yl)-1,1-dimethylurea]
17 | > 10000 nM | > 10000 nM | 1300 nM | CC(=O)N1CCC(Nc2cc(C(=O)N3CCC(NC(=O)C4CC4)CC3)nc(-c3cnn4ccsc34)n2)CC1 [Example 188, N-(1-6-[(l-acetylpiperidin-4-yl)amino]-2-(pyrazolo[5,1-b][1,3]thiazol-7-yl)pyrimidine-4-carbonylpiperidin-4-yl)cyclopropanecarboxamide]
18 | > 10000 nM | 5600 nM | 450 nM | COC(=O)NC1CCN(C(=O)c2cc(NCCC3CC3)nc(-c3cnn4ccsc34)n2)CC1 [Example 163, Methyl (1-6-[(2-cyclopropylethyl)amino]-2-(pyrazolo[5,1-b][1,3]thiazol-7-yl)pyrimidine-4-carbonylpiperidin-4-yl)carbamate]
19 | > 10000 nM | 470 nM | 62 nM | Cc1ccccc1C(=O)NC1CCN(C(=O)c2cc(N[C@@H](C)C3CC3)nc(-c3cnn4ccsc34)n2)CC1 [Example 184, N-1-[6-[(1S)-1-cyclopropylethyl]amino-2-(pyrazolo[5,1-b][1,3]thiazol-7-yl)pyrimidine-4-carbonyl]piperidin-4-yl-2-methylbenzamide]

Row | SMILES | IC50 (JAK2) | IC50 (JAK3) | IC50 (JAK1)
20 | CCC(=O)NC1CCN(C(=O)c2cc(OCC(CC)CC)nc(-c3cnn4ccsc34)n2)CC1 [Example 114, N-(1-{[6-(2-Ethylbutoxy)-2-(pyrazolo[5,1-b][1,3]thiazol-7-yl)pyrimidin-4-yl]carbonyl}piperidin-4-yl)propanamide] | 1200 nM | 2700 nM | 360 nM
